According to patent US11572365B2, “Crystal form of upadacitinib, preparation method therefor, and use thereof” (CRYSTAL PHARMACEUTICAL (SUZHOU) CO., LTD., priority 2021, dated 2023):
≈ marks a conversion by molar mass, not a printed value. One block for each molecule: values may come before it.

Key:
Type in all cases: physicochemical
[1] = Kinetic solubility in FeSSIF, FaSSIF and pH 7.4 PBS (HPLC); details: for solubility at 24 h / solubility at 48 h: thermodynamic from solid
Description: The method parameters of kinetic solubility test in the present disclosure are as follows:
(§1) Approximately 15-30 mg of Form CSVI in the present disclosure was suspended into 1.8 mL of FeSSIF, 1.8 mL of FaSSIF and 1.8 mL of pH=7.4 PBS. After equilibration for 24 hours and 48 hours, the concentration of upadacitinib in saturated solutions were tested by HPLC and the results are listed in Table 2.
as §1, with “CSVII” for “CSVI”, “was” for “were”, “5.” for “2.”

[2] = DVS humidity cycle 0% RH-95% RH-0% RH, crystalline form by XRPD; details: XRPD before and after
Description: Dynamic Vapor Sorption (DVS) is measured via an SMS (Surface Measurement Systems Ltd.) intrinsic DVS instrument. Its control software is DVS-Intrinsic control software. Typical parameters for DVS test are as follows: • Temperature: 25° C. • Gas and flow rate: N2, 200 mL/min • RH range: 0% RH to 95% RH
It can be seen that Form CSVI has good stability under accelerated conditions. Form CSVI is stable for at least 1 month under 60° C./75% RH (sealed) condition. It can be seen that Form CSVI has good stability under more stressed condition as well. Approximately 10 mg of Form CSVI in the present disclosure underwent a humidity cycle of 0% RH-95% RH-0% RH with a dynamic vapor sorption (DVS) analyzer.
Approximately 10 mg of Form CSVII in the present disclosure underwent a humidity cycle of 0% RH-95% RH-0% RH with a dynamic vapor sorption (DVS) analyzer.

[3] = Stability of drug substance on storage (XRPD crystalline form, HPLC purity); details: for Chemical purity during storage: storage conditions of the stability test
Description: The method parameters for related substances test in the present disclosure are as follows:
(§2) Approximately 5 mg of Form CSVI in the present disclosure was stored under 40° C./75% RH and 60° C./75% RH conditions. The purity and crystalline form were tested before and after storage by HPLC and XRPD. The results are listed in Table 3 and the XRPD overlay is substantially as depicted in FIG. 4.
as §2, with “CSVII” for “CSVI”, “under 25° C./60% RH,” for “under”, “6” for “3”, “10.” for “4.”

[4] = Crystalline form before and after formulation process (XRPD)
[5] = 40° C./75% RH, Sealed, 6 months
[6] = 25° C./60% RH, Sealed, 6 months

solubility at 24 h ([1]; FaSSIF, 37 °C, pH 6.5, fassif, FaSSIF (pH 6.5, 37° C.), 24 hours): 1870 µg/mL (≈ 4.92 mM)
solubility at 48 h ([1]; FaSSIF, 37 °C, pH 6.5, fassif, FaSSIF (pH 6.5, 37° C.), 48 hours): 1710 µg/mL (≈ 4.5 mM)
solubility at 24 h ([1]; FeSSIF, 37 °C, pH 5, fessif, FeSSIF (pH 5.0, 37° C.), 24 hours): 2200 µg/mL (≈ 5.78 mM)
solubility at 48 h ([1]; FeSSIF, 37 °C, pH 5, fessif, FeSSIF (pH 5.0, 37° C.), 48 hours): 2220 µg/mL (≈ 5.84 mM)
solubility at 24 h ([1]; PBS, 25 °C, pH 7.4, aqueous buffer, pH 7.4, 25° C., 24 hours): 880 µg/mL (≈ 2.31 mM)
solubility at 48 h ([1]; PBS, 25 °C, pH 7.4, aqueous buffer, pH 7.4, 25° C., 48 hours): 850 µg/mL (≈ 2.23 mM)
Form change after DVS test [2]: no form change is observed
Time for which the form is stable (crystalline state unchanged) ([3]; 40° C./75% RH (open)): at least 6 months
Time for which the form is stable (crystalline state unchanged) ([3]; 40° C./75% RH (sealed)): at least 6 months
Purity ([3]; 40° C./75% RH, Open, 6 months): 99.89%
Solid form ([3]; 40° C./75% RH, Open, 6 months): Form CSVI
Purity [3, 5]: 99.92%
Solid form [3, 5]: Form CSVI
Time for which the form is stable (crystalline state unchanged) ([3]; 60° C./75% RH (sealed)): at least 1 month
Purity ([3]; 60° C./75% RH, Sealed, 1 month): 99.91%
Solid form ([3]; 60° C./75% RH, Sealed, 1 month): Form CSVI
Purity ([3]; Initial): 99.89%
Solid form ([3]; Initial): Form CSVI
Chemical purity during storage [3]: above 99.8%
Physical stability after formulation procedure [4]: physically stable
SMILES: CC[C@@H]1CN(C(=O)NCC(F)(F)F)C[C@@H]1c1cnc2cnc3[nH]ccc3n12 [Form CSVI, (3S,4R)-3-ethyl-4-(3H-imidazo[1,2-a]pyrrolo[2,3-e]pyrazin-8-yl)-N-(2,2,2-trifluoroethyl) pyrrolidine-1-carboxamide]

Solubility ([1]; FaSSIF (pH 6.5, 37° C.), 24 hours): 2020 µg/mL (≈ 5.31 mM)
Solubility ([1]; FaSSIF (pH 6.5, 37° C.), 48 hours): 2170 µg/mL (≈ 5.7 mM)
Solubility ([1]; FeSSIF (pH 5.0, 37° C.), 24 hours): 2280 µg/mL (≈ 5.99 mM)
Solubility ([1]; FeSSIF (pH 5.0, 37° C.), 48 hours): 2470 µg/mL (≈ 6.49 mM)
Solubility ([1]; pH 7.4, 25° C., 24 hours): 920 µg/mL (≈ 2.42 mM)
Solubility ([1]; pH 7.4, 25° C., 48 hours): 850 µg/mL (≈ 2.23 mM)
Form change after DVS test [2]: no form change is observed
Purity ([3]; 25° C./60% RH, Open, 6 months): 99.91%
Solid form ([3]; 25° C./60% RH, Open, 6 months): Form CSVII
Purity [3, 6]: 99.92%
Solid form [3, 6]: Form CSVII
Purity [3, 5]: 99.92%
Solid form [3, 5]: Form CSVII
Purity ([3]; 60° C./75% RH, Sealed, 1 month): 99.92%
Solid form ([3]; 60° C./75% RH, Sealed, 1 month): Form CSVII
Purity ([3]; Initial): 99.92%
Solid form ([3]; Initial): Form CSVII
Chemical purity during storage [3]: above 99.9%
Physical stability after formulation procedure [4]: physically stable
SMILES: CC[C@@H]1CN(C(=O)NCC(F)(F)F)C[C@@H]1c1cnc2cnc3[nH]ccc3n12 [Form CSVII, (3S,4R)-3-ethyl-4-(3H-imidazo[1,2-a]pyrrolo[2,3-e]pyrazin-8-yl)-N-(2,2,2-trifluoroethyl) pyrrolidine-1-carboxamide]
